Assay results as given in ChEMBL document CHEMBL1201862, “PubChem BioAssay data set” (2004).
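Compound exposure: 48 hours, 5 concentrations, 96-well plates. Here, GI50 denotes the concentration required for 50% inhibition of growth.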 Active and inactive are the calls of the source. No stated cut-off is given here; in the data, active = GI50 up to about 1.1 µM and inactive = higher.

What was measured:
Experiment in all cases: growth of human tumour cells (NCI), 48 h
[1] = test system: SNB-75
[2] = test system: OVCAR-4
[3] = test system: NCI-H23
[4] = test system: NCI-H460
[5] = test system: HOP-62
[6] = test system: ACHN
[7] = test system: SNB-78
[8] = test system: IGROV-1
[9] = test system: SF-295
[10] = test system: HL-60
[11] = test system: SF-539
[12] = test system: OVCAR-5
[13] = test system: SN12C
[14] = test system: HCT-15
[15] = test system: HOP-18
[16] = test system: U-251
[17] = test system: SK-MEL-2
[18] = test system: UACC-257
[19] = test system: TK-10
[20] = test system: HCT-116
[21] = test system: Malme-3M
[22] = test system: RPMI-8226
[23] = test system: LOX IMVI
[24] = test system: COLO 205
[25] = test system: SK-MEL-5
[26] = test system: NCI-H522
[27] = test system: M19-MEL
[28] = test system: CAKI-1
[29] = test system: HOP-92
[30] = test system: KM12
[31] = test system: RXF 393
[32] = test system: HT-29
[33] = test system: OVCAR-8
[34] = test system: K562
[35] = test system: A549
[36] = test system: DLD-1
[37] = test system: SR
[38] = test system: UACC-62
[39] = test system: UO-31
[40] = test system: NCI-H226
[41] = test system: SK-OV-3
[42] = test system: 786-0
[43] = test system: MOLT-4
[44] = test system: M14
[45] = test system: LXFL 529
[46] = test system: SW-620
[47] = test system: DMS-273
[48] = test system: SK-MEL-28
[49] = test system: A498
[50] = test system: SF-268
[51] = test system: HCC 2998
[52] = test system: XF498
[53] = test system: EKVX
[54] = test system: OVCAR-3
[55] = test system: DMS-114
[56] = test system: SNB-19
[57] = test system: KM-20L2
[58] = test system: CCRF-CEM

Measured: GI50

O=C1C(Cl)=C(NCCOCCO)C(=O)c2c(O)ccc(O)c21
1.85 µM: [14]
inactive: [1] 17 µM | [2] 2.37 µM | [3] 1.88 µM | [4] 3.36 µM | [5] 20 µM | [6] 15.4 µM | [7] 12.7 µM | [8] 5.6 µM | [9] 11.6 µM | [10] 3.89 µM | [11] 4.53 µM | [12] 19.5 µM | [13] 11 µM | [15] 15.6 µM | [16] 17 µM | [17] 8.67 µM | [18] 2.97 µM | [19] 13.6 µM | [20] 2.86 µM | [21] 2.82 µM | [22] 3.1 µM | [23] 3.61 µM | [24] 2.17 µM | [25] 1.96 µM | [26] 1.98 µM | [27] 1.81 µM | [28] 23.9 µM | [29] 24.3 µM | [30] 3.32 µM | [31] 14.1 µM | [32] 3.08 µM | [33] 7.36 µM | [34] 2.65 µM | [35] 5.75 µM | [36] 2.13 µM | [37] 6.53 µM | [38] 3.24 µM | [39] 16 µM | [40] 18.3 µM | [41] 17.3 µM | [42] 4.97 µM | [43] 5.19 µM | [44] 11.2 µM | [45] 7.62 µM | [46] 3.55 µM | [47] 3.89 µM

ClC(Cl)=C(Cl)C1(Cl)CC1COCc1ccccc1 (stereo unspecified)
inactive: [1] 37.2 µM | [2] 17.6 µM | [3] 25.2 µM | [4] 38.5 µM | [5] 25.9 µM | [6] 39.4 µM | [48] 56.2 µM | [7] 4.83 µM | [8] 47.6 µM | [9] 25.5 µM | [49] 52.4 µM | [10] 15.6 µM | [11] 51.6 µM | [12] 32.6 µM | [13] 39.8 µM | [50] 43.3 µM | [17] 17.8 µM | [51] 31.6 µM | [52] 23.6 µM | [18] 26.1 µM | [19] 60.8 µM | [21] 18.4 µM | [22] 15.8 µM | [23] 23.1 µM | [24] 25.2 µM | [53] 26.1 µM | [54] 22.6 µM | [25] 15.8 µM | [26] 16.5 µM | [27] 31.4 µM | [28] 65.8 µM | [29] 15.3 µM | [30] 35 µM | [55] 20.7 µM | [31] 18.1 µM | [56] 36.9 µM | [32] 24.8 µM | [33] 33.1 µM | [34] 30.2 µM | [35] 26.1 µM | [36] 38 µM | [38] 22.5 µM | [39] 25.8 µM | [40] 22.4 µM | [41] 39.4 µM | [42] 44.3 µM | [43] 20.9 µM | [44] 32.4 µM | [45] 51.6 µM | [57] 33.3 µM | [46] 30.9 µM | [58] 22.3 µM | [47] 42.8 µM
33.3 µM: [14]

C[C@]12CC(C#N)C(=O)C(O)=C1CC[C@@H]1C2CC[C@@]2(C)C1CC[C@@H]2O (stereo partly specified)
48.6 µM: [14]
inactive: [1] 9.91 µM | [2] 48.5 µM | [3] 35.6 µM | [4] 41.8 µM | [5] 80.4 µM | [6] 47.2 µM | [48] 40.9 µM | [7] 65.3 µM | [8] 12.2 µM | [9] > 100 µM | [49] 3.86 µM | [10] 13.8 µM | [11] 46.1 µM | [12] 27.3 µM | [13] 60 µM | [50] 41.7 µM | [16] > 100 µM | [17] 51.8 µM | [51] > 100 µM | [52] 18.8 µM | [18] 71.1 µM | [19] 27.1 µM | [20] 41.1 µM | [21] 31.1 µM | [22] 7 µM | [23] 27.4 µM | [24] 48.5 µM | [53] 34.8 µM | [54] 65.5 µM | [25] 26.3 µM | [29] 10.7 µM | [30] > 100 µM | [55] 49 µM | [31] 19.1 µM | [56] 83.4 µM | [32] > 100 µM | [33] > 100 µM | [34] 46.9 µM | [35] 47.5 µM | [36] 58.3 µM | [38] 3.99 µM | [39] 10.1 µM | [40] 27.6 µM | [41] 33.2 µM | [42] 22.9 µM | [43] 40.7 µM | [44] 65.5 µM | [45] 65.5 µM | [57] 95.5 µM | [46] > 100 µM | [58] 45.1 µM | [47] 17.3 µM

N#C/C(=C1/Sc2c(nc[nH]c2=O)N1c1ccccc1)c1nc2ccccc2[nH]1
> 100 µM: [14]
inactive: [1] 26 µM | [2] > 100 µM | [3] > 100 µM | [4] > 100 µM | [5] > 100 µM | [6] > 100 µM | [48] > 100 µM | [7] > 100 µM | [8] > 100 µM | [9] > 100 µM | [49] > 100 µM | [10] > 100 µM | [11] > 100 µM | [12] > 100 µM | [13] > 100 µM | [50] > 100 µM | [16] > 100 µM | [17] > 100 µM | [51] > 100 µM | [52] > 100 µM | [18] > 100 µM | [19] > 100 µM | [20] > 100 µM | [21] > 100 µM | [22] > 100 µM | [24] > 100 µM | [53] > 100 µM | [54] > 100 µM | [25] > 100 µM | [26] > 100 µM | [27] > 100 µM | [28] > 100 µM | [29] > 100 µM | [30] > 100 µM | [55] > 100 µM | [56] > 100 µM | [32] > 100 µM | [33] > 100 µM | [34] > 100 µM | [35] > 100 µM | [36] > 100 µM | [37] > 100 µM | [38] > 100 µM | [39] > 100 µM | [41] > 100 µM | [43] > 100 µM | [44] > 100 µM | [45] > 100 µM | [57] > 100 µM | [46] > 100 µM | [58] > 100 µM | [47] > 100 µM

COC(=O)C(Cl)=C1CC1
20.4 µM: [14]
inactive: [1] 38.4 µM | [2] 34.8 µM | [3] 45.2 µM | [4] > 100 µM | [5] > 100 µM | [6] 21.5 µM | [48] 22.9 µM | [7] 49.1 µM | [8] > 100 µM | [9] > 100 µM | [49] > 100 µM | [10] 19.7 µM | [11] 27.2 µM | [12] > 100 µM | [13] 41.8 µM | [50] 92.5 µM | [17] 32.1 µM | [51] 31.7 µM | [52] 29.4 µM | [18] 31.6 µM | [19] 36.7 µM | [21] 21.1 µM | [22] 21.8 µM | [23] 16.7 µM | [24] 19.9 µM | [53] > 10 µM | [54] 26.7 µM | [25] 28.5 µM | [26] 17.6 µM | [27] 39.7 µM | [28] 17.9 µM | [29] 13.3 µM | [30] 37 µM | [55] 31 µM | [31] 19.1 µM | [56] > 100 µM | [32] 34.2 µM | [33] 30.3 µM | [34] 22.3 µM | [35] > 100 µM | [36] 23.6 µM | [38] 59 µM | [39] 31.4 µM | [40] > 100 µM | [41] > 100 µM | [42] 26.1 µM | [43] 17.7 µM | [44] 16.2 µM | [45] 16 µM | [57] > 100 µM | [46] 18.3 µM | [58] 14.3 µM | [47] 31.6 µM
